Source: paper PMC9317316, “Synthesis and Evaluation of Some New 4H-Pyran Derivatives as Antioxidant, Antibacterial and Anti-HCT-116 Cells of CRC, with Molecular Docking, Antiproliferative, Apoptotic and ADME Investigations” (Pharmaceuticals, 2022)
Read-outs that look alike come from different tables or passages of the source.

What was measured:
[1] = Reducing power assay (FRAC, Fe3+ to Fe2+); details: 0-1 mg/mL, absorbance 700 nm
Procedure: Secondly, FRAC was determined over the concentration range of 0.0−1 mg/mL via monitoring Fe^3+−Fe^2+ transformation in the presence of the studied compounds and the reference antioxidant BHT to estimate the values of efficient concentration (EC50), expressed in mM.
The reducing power of the studied compounds was assessed according to Oyaizu’s method. Briefly, different concentrations (ranging from 0 to 1 mg/mL) of each tested compound were first mixed with 1 mL of 0.2 M sodium phosphate buffer (pH 6.6) and 1 mL of 1% potassium ferricyanide (K3Fe(CN)6) and incubated at 50 °C for 20 min. After the addition of 1.25 mL of 20% trichloroacetic acid (TCA), the mixture was centrifuged for 10 min at 3000 rpm and the upper layer solution was then mixed with 0.5 mL of 0.1% fresh ferric chloride and an equal volume of deionized water. Finally, the absorption of the resulting mixture was measured at 700 nm using a UV spectrophotometer against distilled water as the blank, while butylated hydroxytoluene (BHT) was used as a positive control. The sample ferric reducing power capability was indicated by increased absorbance.

[2] = system: HCT-116 cells; test: Cell viability (cytotoxicity, LDH release) assay; format: cell-based; details: Homo sapiens, 24 h; for viability at 100 µg/mL: read-out: percent of viable cells
Procedure: The synthesized compounds were also examined at four concentrations (10, 25, 50 and 100 µg/mL) for their cytotoxic effects on human colorectal cancer HCT-116 cells after their incubation together for 24 h.
Cytotoxic potency was examined for a human colon cancer cell line HCT-116 (American Type Culture Collection; Manassas, VA, USA) using various amounts of each compound (10, 25, 50 and 100 µg). Samples were diluted in Dulbecco’s Modified Eagle’s Medium, consisting of 10% Fetal Bovine Serum, and added to cells grown and cultured for 24 h in a 5% CO2-humidified incubator at 37 °C. Then, the activity of lactate dehydrogenase released from damaged cells was determined in the collected supernatant aliquots using an ELISA endpoint assay (Benchmark Plus, Bio-Rad, Hercules, CA, USA). As positive and negative controls, respectively, 0.1% Triton X-100 in the assay medium and the assay medium only were used. Cell viability, shown as mean values ± SDs (n = 3), was expressed as a relative percentage of the OD values determined at 600 nm in compound-treated cells and the control.

[3] = system: P. aeruginosa (ATCC 27853); test: Antibacterial viability (CFU) assay, IC50; format: cell-based; details: Pseudomonas aeruginosa, ATCC27853
Procedure: (§1) The results for the in vitro antibacterial properties of the synthesized compounds against five Gram-positive and four Gram-negative human-pathogenic strains, which were assessed by both the agar diffusion method (based on inhibition zone (IZ)) and the broth dilution bioassay (for the determination of the half-maximal inhibitory concentration (IC50) values), using ampicillin as the reference antibiotic drug, are shown in Table 2 and Table 3.
(§2) The antibacterial activity of all synthesized compounds was evaluated against the Gram-negative strains E. coli (ATCC 25966), K. pneumonia (ATCC 700603), P. aeruginosa (ATCC 27853) and S. enteric (ATCC 43972) and against the Gram-positive strains B. cereus (ATCC 14579), B. subtilis (ATCC 6633), E. faecalis (ATCC 29122), S. aureus (ATCC 25923) and S. epidermidis (ATCC 14990), using the agar diffusion method through measuring the appearance of the inhibition zone on the surface of the top agar, as reported by Berghe and Vlietinck. Ampicillin (10 µg/well) was used as the positive reference standard. Bacterial viability was also investigated by determining the colony-forming ability (CFU) of bacteria incubated at different time intervals without or with appropriate amounts of the compound, which were mixed with 2 ×10^7 CFU/mL in sterile BHI and incubated under shaking for 60 min at 37 °C. Samples were serially diluted into sterile BHI, streaked onto media agar plates and incubated for 24 h at 37 °C. The antibacterial potency of the tested compounds was expressed as the residual number of CFUs with reference to the initial inoculums. The results presented as the half-maximal (50 %) inhibitory concentration (IC50) values are the means of three different measurements.

[4] = system: E. coli (ATCC 25966); test: Antibacterial viability (CFU) assay, IC50; format: cell-based; details: Escherichia coli, ATCC25966; E. coil (ATCC 25966)
Procedure: as §1, §2

[5] = system: B. subtilis (ATCC 6633); test: Antibacterial viability (CFU) assay, IC50; format: cell-based; details: Bacillus subtilis, ATCC6633, B. subtilis (ATCC 6633)
Procedure: as §1, §2

[6] = system: B. cereus (ATCC 14579); test: Antibacterial viability (CFU) assay, IC50; format: cell-based; details: Bacillus cereus, ATCC14579
Procedure: as §1, §2

[7] = system: S. aureus (ATCC 25923); test: Antibacterial viability (CFU) assay, IC50; format: cell-based; details: Staphylococcus aureus, ATCC25923
Procedure: as §1, §2

[8] = system: S. enteric (ATCC 43972); test: Antibacterial viability (CFU) assay, IC50; format: cell-based; details: read-out: IC50
Procedure: as §1, §2

[9] = system: K. pneumonia (ATCC 700603); test: Antibacterial viability (CFU) assay, IC50; format: cell-based; details: Klebsiella pneumoniae, ATCC700603
Procedure: as §1, §2

[10] = system: E. faecalis (ATCC 29122); test: Antibacterial viability (CFU) assay, IC50; format: cell-based; details: Enterococcus faecalis, ATCC29122
Procedure: as §1, §2

[11] = system: S. epidermidis (ATCC 14990); test: Antibacterial viability (CFU) assay, IC50; format: cell-based; details: Staphylococcus epidermidis, ATCC14990
Procedure: as §1, §2

[12] = DPPH radical scavenging assay; details: for IC50: 0.03 to 1 mg/mL, 1 h, mean ± SD, triplicate, read-out: IC50 (mM) for DPPH Scavenging Potency
Procedure: The IC50 values for DPPH were calculated from the plot of the scavenging effect against the compound concentration.
The compounds’ capacities to scavenge the stable radical 1,1 diphenyl-2-picrylhydrazyl (DPPH) formed in solution by donation of a hydrogen atom or an electron was investigated according to the method described by Bersuder and coworkers. Due to the fact that the initial blue/purple solution of diphenyl picrylhydrazine changes to yellow in the presence of compounds with a capacity to scavenge DPPH free radicals, this reaction is used as a measure of a compound’s ability to scavenge any free radical. Briefly, a 0.5 mL volume of DPPH ethanolic solution was mixed with an equal volume of each sample concentration (0.03 to 1 mg/mL), shaken strongly and incubated at room temperature for 1 h in darkness. The absorbance of the residual DPPH radicals was measured at 519 nm and compared to that of the control (without the tested compound). DPPH radical scavenging was calculated using the following formula: Scavenging effect (%) = (1 − Acompound/AControl) × 100, where Acompound and Acontrol are the absorbances of the tested compound and of the control, respectively. A plot of the scavenging effect (%) versus the sample concentration was also performed to determine the compound concentration providing 50% inhibition (IC50).

[13] = system: P. aeruginosa (ATCC 27853); test: Antibacterial agar diffusion method (inhibition zone); format: cell-based
Procedure: as §1, §2

[14] = system: E. coli (ATCC 25966); test: as above; format: cell-based; details: E. coil (ATCC 25966)
Procedure: as §1, §2

[15] = system: B. subtilis (ATCC 6633); test: as above; format: cell-based
Procedure: as §1, §2

[16] = system: B. cereus (ATCC 14579); test: as above; format: cell-based
Procedure: as §1, §2

[17] = system: S. aureus (ATCC 25923); test: as above; format: cell-based
Procedure: as §1, §2

[18] = system: S. enteric (ATCC 43972); test: as above; format: cell-based
Procedure: as §1, §2

[19] = system: K. pneumonia (ATCC 700603); test: as above; format: cell-based
Procedure: as §1, §2

[20] = system: E. faecalis (ATCC 29122); test: as above; format: cell-based
Procedure: as §1, §2

[21] = system: S. epidermidis (ATCC 14990); test: as above; format: cell-based
Procedure: as §1, §2

[22] = read-out: Mean IC50 (µM) of cytotoxicity
[23] = read-out: Mean IC50 (µg/mL) of cytotoxicity

## COC(=O)C1=C(C)OC(N)=C(C#N)C1c1ccccc1C(=O)O (stereo not shown) [4a, 6-Amino-4-(2-carboxy-phenyl)-5-cyano-2-methyl-4H-pyran-3-carboxylic acid methyl ester]
[1]
  EC50: 827 ± 45 µM
[2]
  viability at 100 µg/mL: 46%
[2]; [22]
  IC50: 165 ± 14.4 µM
[2]; [23]
  IC50: 52 ± 4.54 µg/mL
[3]
  IC50: 37.6 ± 0.5 µM
[4]
  IC50: 138 ± 6.68 µM
[5]
  IC50: 64.4 ± 3.37 µM
[6]
  IC50: 71.8 ± 2.04 µM
[7]
  IC50: 41.2 ± 2.48 µM
[8]
  IC50: 120 ± 1.91 µM
[9]
  IC50: 131 ± 3.5 µM
[10]
  IC50: 49.6 ± 1.81 µM
[11]
  IC50: 42.3 ± 1.33 µM
[12]
  IC50: 2.29 ± 0.134 mM
  DPPH Radical Scavenging Effenciency (%) at 1 mg/mL: 24.15 ± 1.62%
other
  melting point: 216 to 218 °C
[13]
  IZ (mm): 5.5 ± 0.7 mm
[14]
  IZ (mm): 4.5 ± 0.71 mm
[15]
  IZ (mm): 5.20 ± 0.28 mm
[16]
  IZ (mm): 7.50 ± 0.71 mm
[17]
  IZ (mm): 8.00 ± 1.41 mm
[18]
  IZ (mm): 4.5 ± 0.7 mm
[19]
  IZ (mm): 2.5 ± 0.7 mm
[20]
  IZ (mm): 9.00 ± 1.41 mm
[21]
  IZ (mm): 9.50 ± 0.71 mm

## COc1cccc(C2C(C#N)=C(N)OC(C)=C2C(=O)OCc2ccccc2)c1[N+](=O)[O-] (stereo not shown) [4c, 6-Amino-5-cyano-4-(3-methoxy-2-nitro-phenyl)-2-methyl-4H-pyran-3-carboxylic acid benzyl ester]
[1]
  EC50: 1230 ± 67 µM
[2]
  viability at 100 µg/mL: 11 to 32.5%
[2]; [22]
  IC50: 102 ± 4.82 µM
[2]; [23]
  IC50: 43 ± 2.03 µg/mL
[3]
  IC50: 85.9 ± 2.61 µM
[4]
  IC50: 93.7 ± 4.98 µM
[5]
  IC50: 46.3 ± 1.68 µM
[6]
  IC50: 44.5 ± 0.83 µM
[7]
  IC50: 37 ± 2.02 µM
[8]
  IC50: 100 ± 2.61 µM
[9]
  IC50: 112 ± 1.42 µM
[10]
  IC50: 41.1 ± 2.18 µM
[11]
  IC50: 30.4 ± 1 µM
[12]
  IC50: 2.24 ± 0.05 mM
  DPPH Radical Scavenging Effenciency (%) at 1 mg/mL: 57.10 ± 1.56%
other
  melting point: 190 to 192 °C
[13]
  IZ (mm): 7.5 ± 0.7 mm
[14]
  IZ (mm): 2.5 ± 0.71 mm
[15]
  IZ (mm): 11.00 ± 1.41 mm
[16]
  IZ (mm): 14.00 ± 1.41 mm
[17]
  IZ (mm): 15.50 ± 0.71 mm
[18]
  IZ (mm): 8.5 ± 0.7 mm
[19]
  IZ (mm): 3.5 ± 0.7 mm
[20]
  IZ (mm): 10.00 ± 1.41 mm
[21]
  IZ (mm): 16.65 ± 0.50 mm

## CC1(C)S[C@@H]2[C@H](NC(=O)[C@H](N)c3ccccc3)C(=O)N2[C@H]1C(=O)O [Ampicillin, reference compound]
[3]
  IC50: 41.5 ± 1.72 µM
[4]
  IC50: 58 ± 4.87 µM
[5]
  IC50: 37.2 ± 1.43 µM
[6]
  IC50: 25.8 ± 0.57 µM
[7]
  IC50: 38.6 ± 2 µM
[8]
  IC50: 14.9 ± 0.34 µM
[9]
  IC50: 32.9 ± 2.29 µM
[10]
  IC50: 36.5 ± 3.03 µM
[11]
  IC50: 50.1 ± 3.43 µM
[13]
  IZ (mm): 21.5 ± 0.7 mm
[14]
  IZ (mm): 23.5 ± 0.71 mm
[15]
  IZ (mm): 25.50 ± 0.71 mm
[15]; listed as ampicillin
  IZ (mm): 25.50 mm
[16]
  IZ (mm): 23.50 ± 0.71 mm
[16]; listed as ampicillin
  IZ (mm): 23.50 mm
[17]
  IZ (mm): 21.50 ± 0.71 mm
[17]; listed as ampicillin
  IZ (mm): 21.50 mm
[18]
  IZ (mm): 19.5 ± 0.7 mm
[19]
  IZ (mm): 21.0 ± 1.4 mm
[20]
  IZ (mm): 24.50 ± 0.71 mm
[20]; listed as ampicillin
  IZ (mm): 24.50 mm
[21]
  IZ (mm): 22.50 ± 0.71 mm
[21]; listed as ampicillin
  IZ (mm): 22.50 mm
